Values joined by “and” are separate entries in the source; they are usually repeats but may differ in a detail not shown here. Equal values may be shown once.
Key:
mAbs to SP and SP-enol = assay: Direct cELISA, binding of analytes and other pesticides by the generated mAbs; design: species or system mouse; conditions: for binding by the antibodies: other pesticides, insecticides and fungicides
Excerpt: Six mouse mAbs were obtained; three were from immunogen BSA‒SPm—named SPm#23, SPm#25, and SPm#216—and three from conjugate BSA‒SPo—named SPo#227, SPo#237, and SPo#243. These antibodies contained κ light chains and were of the IgG1 isotype, except mAb SPm#25 which was IgG2a. The affinity to SP and SP-enol was studied by checkerboard cELISA in the capture antibody-coated direct format, using homologous and heterologous enzyme tracers (with the same or different hapten, respectively, than the immunizing conjugate). SP and SP-enol standards were prepared in PBS (10 mM phosphate buffer, pH 7.4, with 140 mM NaCl) and tracer solutions for the competitive step were prepared in PBS-T (PBS containing 0.05% (v/v) Tween-20). […] Tracers with linker site heterologies were not bound by the antibodies. The only exception was mAb SPm#23 which did recognize the heterologous HRP‒SPh conjugate. For this antibody, the spacer arm of hapten SPh was located at a more proximal site than that of hapten […]. The lowest IC50 value with the homologous tracer was around 3 nM for SP-enol whereas binding to SP was moderate (IC50 values were higher than 30 nM).
(§1) Concerning specificity, the two assayed immunogens (BSA‒SPm and BSA‒SPo) afforded equivalent results. […] Cross-reactivity with the main SP metabolites was studied with antibody SPm#23.
(§2) Microplates were precoated with GAM in order to immobilise the mAb. The competitive step was carried out by mixing the analyte solution or diluted sample with the enzyme tracer solution. Standard curves were built in borosilicate glass tubes from 0.03 to 30 nM by a threefold serial dilution of the most concentrated standard solution, and a blank (no analyte) was also run. Concentrated stock solutions of the analytes in anhydrous DMF were used to prepare the most concentrated standard solution—the DMF concentration was always lower than 0.1% (v/v). The complete immunoassay procedure can be found in the Supplementary Information file.
(§3) Table S1. Specificity of the
(§4) 7. Direct competitive ELISA procedure
(§5) The same protocol previously described for this format was applied.7 Briefly, plates were coated with 100 µL per well of 1 µg/mL GAM solution in carbonate‒bicarbonate buffer, pH 9.6, by overnight incubation at 4 °C. Wells were washed four times with washing solution (150 mM NaCl with 0.05% (v/v) Tween-20) after each incubation step. Then, 100 µL per well of specific mAb solution in PBS-T was added and plates were incubated at room temperature during 1 h. The competitive reaction was carried out by adding 50 µL per well of analyte solution or diluted sample and 50 µL per well of tracer […]
(§6) enzyme substrate solution (2 mg/mL o-phenylendiamine and 0.012% (v/v) H2O2 in 25 mM sodium citrate and 62 mM sodium phosphate buffer, pH 5.4). Ten minutes later, the enzyme reaction was stopped by adding 100 µL per well of 1 M H2SO4.
8. Influence of pH and ionic strength […]
(§7) 7 E. Ceballos-Alcantarilla, D. López-Puertollano, C. Agulló, A. Abad-Fuentes, A. Abad-Somovilla, J. V. Mercader.
Combined heterologies for monoclonal antibody-based immunoanalysis of fluxapyroxad. Analyst 143, 5718‒

mAb SPm#23 [1] = assay: Antibody specificity (cross-reactivity) of the selected mAb; format: binding, mouse; conditions: for CR (%): cross-reactivity of the selected mAb, SP-enol = 100, n=3
Description: as §1, §2, §3, §4, §5, §6
8. Influence of pH and ionic strength
Figure S5. Influence of pH and ionic strength over the Amax and IC50 values of the spirotetramat-enol standard curve of the studied direct cELISA.
as §7
Combined heterologies for monoclonal antibody-based immunoanalysis of fluxapyroxad. Analyst 143, 5718‒ […]

mAb SPm#23 [2] = assay: Optimized direct cELISA (mAb SPm#23 with tracer HRP–SPh), SP-enol standard curve; format: binding, mouse
Description: (§8) In order to simultaneously quantify SP and SP-enol contents in a sample, an in situ procedure for treating the sample with alkaline solution in order to hydrolyse SP into SP-enol was assessed. SP and SP-enol standard solutions were prepared in MilliQ water and diluted fivefold with 40 mM NaOH. The mixtures were incubated 10 min at room temperature and diluted twofold with dilution buffer (200 mM Tris·HCl buffer, pH 8.0, containing 280 mM NaCl). For the competitive step, enzyme tracer solutions were prepared in TBS-T (100 mM Tris·HCl buffer, pH 8.0, containing 140 mM NaCl and 0.05% (v/v) Tween-20). As shown in the inset of Table 2, the obtained standard curves of SP-enol and hydrolysed SP were almost identical. This hydrolysis procedure was validated by HPLC‒MS/MS. SP and SP-enol aqueous solutions (50 µg/mL) were treated with NaOH and, 10 min later, the pH was lowered as previously described. Then, 10 µL of hydrolysed and diluted sample was transferred into 990 µL of acetonitrile and dried with anhydrous MgSO4. Controls without the hydrolysis step were also evaluated. Finally, the contents of SP, SP-enol, SP-keto, and SP-mono in the organic extracts were quantified (Table 2). […] Those samples were also analysed with the studied direct cELISA by running SP-enol standard solutions that had been incubated in NaOH and diluted with dilution buffer like the samples. […] Consequently, the developed hydrolysis procedure seemed to perform adequately for SP and SP-enol residue quantification as SP-enol equivalents.
The sigmoidal inhibition curve obtained for SP-enol and the final assay conditions of the developed direct cELISA are provided in Table 3. […] The Amax value of the standard curve was near 1.0, the slope was − 1.4, and the background signal was negligible.
as §2
The absorbance of each microplate well was immediately read at 492 nm using a reference wavelength at 650 nm, and values were processed with KCJunior software from BioTek Instruments. The SigmaPlot Version 14.0 was used to fit the experimental values to a standard four-parameter logistic curve. Immunoassay sensitivity was estimated as the concentration of analyte affording a 50% decrease (IC50) of the maximum absorbance (Amax) obtained in the absence of analyte. The LOD of the assay was defined as the IC10 of the sigmoidal inhibition curve. The LOQ was experimentally determined as the lowest analyte concentration that provided accurate and precise results using fortified food samples. […]
as §4
The same protocol previously described for this format was applied.7 Briefly, plates were coated with 100 µL per well of 1 µg/mL GAM solution in carbonate‒bicarbonate buffer, pH 9.6, by overnight incubation at 4 °C. Wells were washed four times with washing solution (150 mM NaCl with 0.05% (v/v) Tween-20) after each incubation step. […]

[3] = Spirotetramat hydrolysis study by HPLC‒MS/MS; format: physicochemical; design: content found by HPLC–MS/MS, sample treatment A / content found by HPLC–MS/MS, sample treatment B / content found by HPLC–MS/MS, sample treatment C / content found by HPLC–MS/MS, sample treatment D: unit not given beside the values; conditions: for content found by HPLC–MS/MS, sample treatment A: SP hydrolysed (40 mM NaOH, 10 min, room temperature); for content found by HPLC–MS/MS, sample treatment B: SP without hydrolysis; for content found by HPLC–MS/MS, sample treatment C: SP-enol hydrolysed (40 mM NaOH, 10 min, room temperature)
Description: as §8
SP, SP-enol, SP-keto, and SP-mono standard solutions were prepared by serial dilution in acetonitrile from 1 to 2500 μg/L in amber glass vials and kept at − 20 °C. The injection volume was 5 µL and the column temperature was 45 °C. The analysis was carried out using a C18 reverse phase column with a gradient of 0.2% (v/v) formic acid in water (A) and acetonitrile (B) as mobile phase at a flow rate of 0.3 mL/min. The elution profile was 0‒3 min, from 5% B to 95% B, 3.0‒3.5 min, 95% B, 3.5‒3.6 min, from 95% B to 5% B, and 3.6‒8 min, 5% B. Spectra were acquired in positive ionization multiple reaction monitoring mode with interchannel delay of 0.02 s.

[4] = Spirotetramat hydrolysis study by direct cELISA; format: physicochemical
Description: as §8

[5] = SPm#23 100 μg/L, HRP–SPh 30 μg/L, Tris·HCl pH 8.0, after 40 mM NaOH step, n = 5

CO[C@H]1CC[C@]2(CC1)NC(=O)C(c1cc(C)ccc1C)=C2O [SP-enol, spirotetramat-enol]
IC50 (mAbs to SP and SP-enol; homologous tracer, read-out: lowest IC50 value with the homologous tracer): ~3 nM
CR (%) (mAb SPm#23 [1]): 100%
LOD (μg/L) (IC10) (mAb SPm#23 [2]; IC10 of the SP-enol inhibition curve, n = 5): 0.02 µg/L and 0.022 ± 0.004 µg/L
IC50 (mAb SPm#23 [2]; [5]): 0.34 nM and 0.344 nM
IC50 SP-enol (mAb SPm#23 [2]; [5]): 0.1 ng/mL and 0.104 ± 0.007 ng/mL
IC50 value for the sum of spirotetramat and spirotetramat-enol (mAb SPm#23 [2]; direct cELISA, heterologous bioconjugate): 0.1 ng/mL
fate on incubation in basic solution ([3]; 40 mM NaOH, 10 min, room temperature, HPLC‒MS/MS): remained unmodified
content found by HPLC–MS/MS, sample treatment A [3]: 116.7
content found by HPLC–MS/MS, sample treatment B [3]: 1.44
content found by HPLC–MS/MS, sample treatment C ([3]; C): 149.1
Recovery (%), sample treatment C ([3]; C, SP-enol hydrolysed, HPLC–MS/MS): 119.6%
content found by HPLC–MS/MS, sample treatment D ([3]; D, SP-enol without hydrolysis): 142.8
Recovery (%), sample treatment D ([3]; D, SP-enol without hydrolysis, HPLC–MS/MS): 114.6%
recovery measured as SP-enol by direct cELISA ([4]; incubated in NaOH solution (samples A and C)): 117.6%
recovery measured as SP-enol by direct cELISA ([4]; non-hydrolysed control solution (samples B and D)): 118.0%

COC1CCC2(CC1)NC(=O)C(c1cc(C)ccc1C)=C2O[C@@H]1O[C@H](CO)[C@@H](O)[C@H](O)[C@H]1O (some centres unmarked) [SP-glu, spirotetramat-enol-glucoside]
CR (%) (mAb SPm#23 [1]): 5.11%
affinity to SP-enol, times higher than to the analyte (mAb SPm#23 [1]; mAb SPm#23): ≥ 20 times

COC1CCC2(CC1)NC(=O)C(O)(c1cc(C)ccc1C)C2=O (centres unmarked) [SP-keto, spirotetramat-ketohydroxy]
CR (%) (mAb SPm#23 [1]): 0.02%
binding (mAb SPm#23 [1]; mAb SPm#23): almost negligible
content found by HPLC–MS/MS, sample treatment A [3]: 0.09
content found by HPLC–MS/MS, sample treatment B [3]: 0.08
content found by HPLC–MS/MS, sample treatment C ([3]; C): 0.39
content found by HPLC–MS/MS, sample treatment D ([3]; D, SP-enol without hydrolysis): 0.43

COC1CCC2(CC1)NC(=O)C(c1cc(C)ccc1C)C2O (centres unmarked) [SP-mono, spirotetramat-monohydroxy]
CR (%) (mAb SPm#23 [1]): 0.19%
binding (mAb SPm#23 [1]; mAb SPm#23): almost negligible
content found by HPLC–MS/MS, sample treatment A [3]: 0.01
content found by HPLC–MS/MS, sample treatment B [3]: 0.12
content found by HPLC–MS/MS, sample treatment C ([3]; C): 0.02
content found by HPLC–MS/MS, sample treatment D ([3]; D, SP-enol without hydrolysis): 0.02

CO/C=C(/C(=O)OC)c1ccccc1Oc1cc(Oc2ccccc2C#N)ncn1 [azoxystrobin]
binding by the antibodies (mAbs to SP and SP-enol): did not bind

O=C(Nc1ccccc1-c1ccc(Cl)cc1)c1cccnc1Cl [boscalid]
binding by the antibodies (mAbs to SP and SP-enol): did not bind

N#Cc1c(Cl)c(Cl)c(Cl)c(C#N)c1Cl [chlorothalonil]
binding by the antibodies (mAbs to SP and SP-enol): did not bind

Cc1cc(C2CC2)nc(Nc2ccccc2)n1 [cyprodinil]
binding by the antibodies (mAbs to SP and SP-enol): did not bind

CC1(C)[C@H](C(=O)O[C@H](C#N)c2cccc(Oc3ccccc3)c2)[C@@H]1C=C(Br)Br [deltamethrin]
binding by the antibodies (mAbs to SP and SP-enol): did not bind

CNC(=O)/C(=N/OC)c1ccccc1COc1cc(C)ccc1C [dimoxystrobin]
binding by the antibodies (mAbs to SP and SP-enol): did not bind

CSC1=N[C@@](C)(c2ccccc2)C(=O)N1Nc1ccccc1 [fenamidone]
binding by the antibodies (mAbs to SP and SP-enol): did not bind

CC1(C(=O)Nc2ccc(O)c(Cl)c2Cl)CCCCC1 [fenhexamid]
binding by the antibodies (mAbs to SP and SP-enol): did not bind

CC(Cc1ccc(C(C)(C)C)cc1)CN1C[C@@H](C)O[C@@H](C)C1 (some centres unmarked) [fenpropimorph]
binding by the antibodies (mAbs to SP and SP-enol): did not bind

N#Cc1c[nH]cc1-c1cccc2c1OC(F)(F)O2 [fludioxonil]
binding by the antibodies (mAbs to SP and SP-enol): did not bind

O=[N+]([O-])NC1=NCCN1Cc1ccc(Cl)nc1 [imidacloprid]
binding by the antibodies (mAbs to SP and SP-enol): did not bind

C#CCOc1ccc(CCNC(=O)C(OCC#C)c2ccc(Cl)cc2)cc1OC (centres unmarked) [mandipropamid]
binding by the antibodies (mAbs to SP and SP-enol): did not bind

Oc1ccccc1-c1ccccc1 [o-phenylphenol]
binding by the antibodies (mAbs to SP and SP-enol): did not bind

CC12CC1(C)C(=O)N(c1cc(Cl)cc(Cl)c1)C2=O (centres unmarked) [procymidone]
binding by the antibodies (mAbs to SP and SP-enol): did not bind

CCCOC(=O)NCCCN(C)C [propamocarb]
binding by the antibodies (mAbs to SP and SP-enol): did not bind

COC(=O)N(OC)c1ccccc1COc1ccn(-c2ccc(Cl)cc2)n1 [pyraclostrobin]
binding by the antibodies (mAbs to SP and SP-enol): did not bind

Cc1cc(C)nc(Nc2ccccc2)n1 [pyrimethanil]
binding by the antibodies (mAbs to SP and SP-enol): did not bind

CCC(C)(C)C(=O)OC1=C(c2ccc(Cl)cc2Cl)C(=O)OC12CCCCC2 [spirodiclofen]
binding by the antibodies (mAbs to SP and SP-enol): did not bind

Cc1cc(C)c(C2=C(OC(=O)CC(C)(C)C)C3(CCCC3)OC2=O)c(C)c1 [spiromesifen]
binding by the antibodies (mAbs to SP and SP-enol): did not bind

CCCN(CC)CC1COC2(CCC(C(C)(C)C)CC2)O1 (centres unmarked) [spiroxamine]
binding by the antibodies (mAbs to SP and SP-enol): did not bind

c1ccc2[nH]c(-c3cscn3)nc2c1 [thiabendazole]
binding by the antibodies (mAbs to SP and SP-enol): did not bind

From PMC7815808, “Enzyme and lateral flow monoclonal antibody-based immunoassays to simultaneously determine spirotetramat and spirotetramat-enol in foodstuffs” (Scientific Reports, 2021)
